pIC50: −log10 of the molar value.
Key:
human TRPA1 channel = human TRPA1 channel (Homo sapiens (Human), UniProt O75762); test: TRPA1 inhibitor activity, automated patch clamp (SyncroPatch); assay type: cell-based; conditions: CHO cells inducibly expressing human TRPA1, currents elicited by carvacrol (300 μM), holding potential −60 mV
Description: This assay was used to evaluate the disclosed compounds' inhibition activities against the human TRPA1 channel.
CHO cells inducibly expressing human TRPA1 were grown in DMEM containing 10% heat-inactivated FBS, 1 mM Sodium Pyruvate, 2 mM L-Glutamine, Zeocin (100 μg/ml) and Blasticidin (10 μg/ml). Expression was induced by addition of Doxycycline (1 μg/ml) 24 hours before experiments. Cells used for electrophysiology were plated in plastic culture flasks and grown at 37° C. in a 5% CO2-humidified tissue culture incubator per ChanPharm SOP. Stocks were maintained in cryogenic storage.
The cells were bathed in an extracellular solution containing 80 mM NaCl, 60 mM NMDG, 4 mM KCl, 2 mM CaCl2), 6 mM MgCl2, 5 mM Glucose. 10 mM HEPES, 3 mM HEDTA; pH adjusted to 7.4 with NaOH; 305-310 mOsm. All compounds were dissolved in DMSO at 30 mM. The internal solution contained 10 mM CsCl, 110 mM CsF, 10 mM NaCl, 10 mM EGTA, 10 mM HEPES, 4 mM MgATP, 0.25 mM NaGTP, 4 mM BAPTA; pH adjusted to 7.2 with CsOH; 285-290 mOsm. Compound stock solutions were freshly diluted with external solution to concentrations of 3 nM, 10 nM 30 nM, 100 nM, 300 nM, 1 μM, 3 μM, 10 μM, and 30 μM. The highest content of DMSO (0.1%) was present at 30 μM.
All experiments were performed at room temperature. Each cell acted as its own control. In preparation for a current recording session, intracellular solution (see above) was loaded into the intracellular compartments of the automated patch clamp platform SyncroPatch (Nanion) chip and the cell suspension was pipetted into the extracellular compartments. After establishment of a whole-cell configuration, membrane current recordings and compound application were enabled by means of the SyncroPatch. TRPA1 currents were elicited by application of carvacrol (300 μM) at a constant holding potential of −60 mV (see Table A below).
To determine IC50 values, AUC and peak values, obtained in the presence of a given compound concentration, were normalized to control values in absence of compound. Using DataControl384 (Nanion's proprietary software), IC50 values were derived by fitting the normalized data to the Hill equation.

hERG channel = hERG channel (Homo sapiens (Human), UniProt Q12809); test: hERG activity, automated patch clamp (SyncroPatch); assay type: cell-based; conditions: CHO-K1 cells stably expressing hERG, tail current at −50 mV, compounds at 50 μM and 100 μM
Description: This assay was used to evaluate the disclosed compounds' inhibition activities against the hERG channel.
CHO-K1 cells stably expressing hERG were grown in Ham's F-12 Medium with Glutamine containing 10% heat-inactivated FBS, 1% Penicillin/Streptomycin, Hygromycin (100 μg/ml), and G418 (100 μg/ml). Cells used for electrophysiology were plated in plastic culture flasks and grown at 37° C. in a 5% CO2-humidified incubator per ChanPharm SOP. Stocks were maintained in cryogenic storage.
The cells were bathed in an extracellular solution containing 140 mM NaCl, 4 mM KCl, 2 mM CaCl2), 1 mM MgCl2, 5 mM Glucose, and 10 mM HEPES; pH adjusted to 7.4 with NaOH; 295-305 mOsm. The internal solution contained 10 mM KCl, 110 mM KF, 10 mM NaCl, 10 mM EGTA, 10 mM HEPES; pH adjusted to 7.2 with KOH; 280-285 mOsm. All compounds were dissolved in DMSO at 30 mM. Compound stock solutions were freshly diluted with external solution to concentrations of 50 μM and 100 μM. The highest content of DMSO […].
All experiments were performed at room temperature. Each cell acted as its own control. In preparation for a recording session, intracellular solution (see above) was loaded into the intracellular compartments of the automated patch clamp platform SyncroPatch (Nanion) chip and the cell suspension was pipetted into the extracellular compartments. After establishment of a whole-cell configuration, membrane current recordings, and compound application were enabled by means of the SyncroPatch. hERG currents were elicited by a voltage pulse pattern with fixed amplitudes (depolarization: +20 mV amplitude, 300 ms duration; repolarization: −50 mV, 300 ms duration) repeated at 3 s intervals from a holding potential of −80 mV.
Data acquisition and analysis were performed using DataControl384 (Nanion's proprietary software). To determine the (percentage) inhibition, the last single pulse in the pulse train (i.e., the repolarization step to −50 mV; tail current) at a given compound concentration was used. AUC and peak values, obtained in the presence of compound, were normalized to control values in the absence of compound.

Sequence of human TRPA1 channel (O75762 whole entry): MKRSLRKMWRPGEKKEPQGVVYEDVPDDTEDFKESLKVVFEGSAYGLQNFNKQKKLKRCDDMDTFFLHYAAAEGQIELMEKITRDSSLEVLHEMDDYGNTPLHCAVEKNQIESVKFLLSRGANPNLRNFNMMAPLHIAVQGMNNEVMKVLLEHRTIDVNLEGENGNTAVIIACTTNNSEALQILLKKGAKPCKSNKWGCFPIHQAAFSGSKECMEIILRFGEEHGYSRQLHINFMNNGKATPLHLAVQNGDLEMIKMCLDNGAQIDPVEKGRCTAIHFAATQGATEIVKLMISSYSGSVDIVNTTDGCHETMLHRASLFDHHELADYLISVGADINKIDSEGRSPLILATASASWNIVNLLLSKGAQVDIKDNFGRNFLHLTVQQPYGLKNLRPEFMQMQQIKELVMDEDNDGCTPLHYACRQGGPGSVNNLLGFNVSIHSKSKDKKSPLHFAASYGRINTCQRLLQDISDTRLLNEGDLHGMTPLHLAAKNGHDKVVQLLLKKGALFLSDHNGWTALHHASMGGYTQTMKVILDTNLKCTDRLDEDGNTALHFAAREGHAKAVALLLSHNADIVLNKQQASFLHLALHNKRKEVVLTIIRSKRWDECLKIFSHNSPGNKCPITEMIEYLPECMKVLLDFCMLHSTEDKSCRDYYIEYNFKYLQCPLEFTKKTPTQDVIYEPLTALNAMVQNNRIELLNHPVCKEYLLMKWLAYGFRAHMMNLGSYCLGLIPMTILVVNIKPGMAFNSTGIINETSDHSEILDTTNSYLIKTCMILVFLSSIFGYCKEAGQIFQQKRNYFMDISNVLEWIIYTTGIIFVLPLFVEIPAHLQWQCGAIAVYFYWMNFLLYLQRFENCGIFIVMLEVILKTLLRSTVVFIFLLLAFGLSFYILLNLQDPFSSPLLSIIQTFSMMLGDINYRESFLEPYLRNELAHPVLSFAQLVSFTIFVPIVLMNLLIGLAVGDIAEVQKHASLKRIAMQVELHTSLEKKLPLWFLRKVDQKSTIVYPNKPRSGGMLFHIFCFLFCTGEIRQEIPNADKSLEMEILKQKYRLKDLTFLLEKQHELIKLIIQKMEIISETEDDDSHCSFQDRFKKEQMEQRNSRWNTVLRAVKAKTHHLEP
Sequence of hERG channel (Q12809 whole entry): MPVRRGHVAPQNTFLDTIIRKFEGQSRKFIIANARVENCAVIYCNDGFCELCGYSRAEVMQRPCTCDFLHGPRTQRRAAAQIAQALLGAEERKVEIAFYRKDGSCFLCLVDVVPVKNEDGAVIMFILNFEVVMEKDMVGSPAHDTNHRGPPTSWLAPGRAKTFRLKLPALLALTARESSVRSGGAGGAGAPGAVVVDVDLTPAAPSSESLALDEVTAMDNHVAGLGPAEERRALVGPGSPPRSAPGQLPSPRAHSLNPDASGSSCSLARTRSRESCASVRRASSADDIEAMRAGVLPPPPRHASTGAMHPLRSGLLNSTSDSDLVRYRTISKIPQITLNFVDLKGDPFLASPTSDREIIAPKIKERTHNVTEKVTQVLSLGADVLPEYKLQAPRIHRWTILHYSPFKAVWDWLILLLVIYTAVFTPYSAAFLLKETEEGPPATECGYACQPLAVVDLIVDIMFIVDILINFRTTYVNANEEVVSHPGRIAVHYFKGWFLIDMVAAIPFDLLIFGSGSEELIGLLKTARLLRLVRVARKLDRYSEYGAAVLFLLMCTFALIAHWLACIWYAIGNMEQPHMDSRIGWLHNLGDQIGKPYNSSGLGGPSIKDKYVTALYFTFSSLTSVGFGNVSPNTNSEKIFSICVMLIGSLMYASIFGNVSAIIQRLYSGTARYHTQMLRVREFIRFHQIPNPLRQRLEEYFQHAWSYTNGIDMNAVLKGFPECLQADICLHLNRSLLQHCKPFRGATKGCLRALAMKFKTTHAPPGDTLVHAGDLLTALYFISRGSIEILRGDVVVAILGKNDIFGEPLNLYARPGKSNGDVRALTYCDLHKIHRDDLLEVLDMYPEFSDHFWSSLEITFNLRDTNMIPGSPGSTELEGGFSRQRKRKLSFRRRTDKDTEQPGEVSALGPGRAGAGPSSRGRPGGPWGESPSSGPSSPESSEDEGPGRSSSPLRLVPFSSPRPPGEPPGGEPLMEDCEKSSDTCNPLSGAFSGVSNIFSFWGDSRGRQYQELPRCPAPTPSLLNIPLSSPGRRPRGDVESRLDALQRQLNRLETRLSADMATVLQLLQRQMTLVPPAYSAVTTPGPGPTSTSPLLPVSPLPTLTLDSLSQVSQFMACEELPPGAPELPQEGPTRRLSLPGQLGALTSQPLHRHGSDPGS

| SMILES | pIC50 (human TRPA1 channel; Table 4) | pIC50 (hERG channel; Table 4) | pIC50 (human TRPA1 channel; Table 5) | pIC50 (hERG channel; Table 5) |
| --- | --- | --- | --- | --- |
| O=c1c(Cl)c(-c2cn[nH]c2)ncn1Cc1nc(C[C@H](O)c2ccc(Cl)cc2)no1 [Compound 35, (S)-5-chloro-3-((3-(2-(4-chlorophenyl)-2-hydroxyethyl)-1,2,4-oxadiazol-5-yl)methyl)-6-(1H-pyrazol-4-yl)pyrimidin-4(3H)-one] | > 6.52 | > 4.30 | – | – |
| Nc1ncc(Cl)c(=O)n1Cc1nc(C[C@H](O)c2ccc(Cl)cc2)no1 [Compound 71, (S)-2-amino-5-chloro-3-((3-(2-(4-chlorophenyl)-2-hydroxyethyl)-1,2,4-oxadiazol-5-yl)methyl)pyrimidin-4(3H)-one] | – | – | > 7.00 | < 4.30 |
| NC(=O)c1cn(Cc2nc(C[C@H](O)c3ccc(Cl)cc3)no2)c(=O)c(Cl)n1 [Compound 26, (S)-6-chloro-4-((3-(2-(4-chlorophenyl)-2-hydroxyethyl)-1,2,4-oxadiazol-5-yl)methyl)-5-oxo-4,5-dihydropyrazine-2-carboxamide] | > 6.00 | < 4.30 | – | – |
| O=c1c(Cl)cnc(CO)n1Cc1nc(C[C@H](O)c2ccc(Cl)cc2)no1 [Compound 73, (S)-5-chloro-3-((3-(2-(4-chlorophenyl)-2-hydroxyethyl)-1,2,4-oxadiazol-5-yl)methyl)-2-(hydroxymethyl)pyrimidin-4(3H)-one] | – | – | > 7.00 | < 4.30 |
| Cc1c(-c2cn[nH]c2)ncn(Cc2nc(C[C@H](O)c3ccc(Cl)cc3)no2)c1=O [Compound 65, (S)-3-((3-(2-(4-chlorophenyl)-2-hydroxyethyl)-1,2,4-oxadiazol-5-yl)methyl)-5-methyl-6-(1H-pyrazol-4-yl)pyrimidin-4(3H)-one] | – | – | > 6.52 | > 4.30 |
| Nc1ccn(Cc2nc(C[C@H](O)c3ccc(Cl)cc3)no2)c(=O)c1Cl [Compound 14, (S)-4-amino-3-chloro-1-((3-(2-(4-chlorophenyl)-2-hydroxyethyl)-1,2,4-oxadiazol-5-yl)methyl)pyridin-2(1H)-one] | > 5.52 | < 4.30 | – | – |
| Cc1c(CN)ncn(Cc2nc(CCc3ccc(Cl)cc3)no2)c1=O [Compound 30, 6-(aminomethyl)-3-((3-(4-chlorophenethyl)-1,2,4-oxadiazol-5-yl)methyl)-5-methylpyrimidin-4(3H)-one] | > 6.52 | > 4.30 | – | – |
| O=c1c(Cl)nccn1Cc1nc(C[C@H](O)c2ccc(Cl)cc2)no1 [Compound 22, (S)-3-chloro-1-((3-(2-(4-chlorophenyl)-2-hydroxyethyl)-1,2,4-oxadiazol-5-yl)methyl)pyrazin-2(1H)-one] | > 6.52 | > 4.30 | – | – |
| NC(=O)c1cc(Cl)c(=O)n(Cc2nc(CCc3ccc(Cl)cc3)no2)c1 [Compound 6, 5-chloro-1-((3-(4-chlorophenethyl)-1,2,4-oxadiazol-5-yl)methyl)-6-oxo-1,6-dihydropyridine-3-carboxamide] | > 6.52 | > 4.30 | – | – |
| O=c1c(Cl)c(CO)ccn1Cc1nc(C[C@H](O)c2ccc(Cl)cc2)no1 [Compound 17, (S)-3-chloro-1-((3-(2-(4-chlorophenyl)-2-hydroxyethyl)-1,2,4-oxadiazol-5-yl)methyl)-4-(hydroxymethyl)pyridin-2(1H)-one] | > 6.00 | < 4.30 | – | – |
| Cc1nc(C(N)=O)cn(Cc2nc(C[C@H](O)c3ccc(Cl)cc3)no2)c1=O [Compound 29, 4-({3-[(2S)-2-(4-chlorophenyl)-2-hydroxyethyl]-1,2,4-oxadiazol-5-yl}methyl)-6-methyl-5-oxopyrazine-2-carboxamide] | > 6.52 | < 4.30 | – | – |
| N#Cc1ncn(Cc2nc(C[C@H](O)c3ccc(Cl)cc3)no2)c(=O)c1Cl [Compound 63, 5-chloro-1-({3-[(2S)-2-(4-chlorophenyl)-2-hydroxyethyl]-1,2,4-oxadiazol-5-yl}methyl)-6-oxopyrimidine-4-carbonitrile] | – | – | > 7.00 | > 4.30 |
| Cc1cc(-c2cn[nH]c2)cn(Cc2nc(CCc3ccc(Cl)cc3)no2)c1=O [Compound 8, 1-((3-(4-chlorophenethyl)-1,2,4-oxadiazol-5-yl)methyl)-3-methyl-5-(1H-pyrazol-4-yl)pyridin-2(1H)-one] | > 5.00 | > 4.30 | – | – |
| Cn1cc(-c2ccn(Cc3nc(C[C@H](O)c4ccc(Cl)cc4)no3)c(=O)c2Cl)cn1 [Compound 18, (S)-3-chloro-1-((3-(2-(4-chlorophenyl)-2-hydroxyethyl)-1,2,4-oxadiazol-5-yl)methyl)-4-(1-methyl-1H-pyrazol-4-yl)pyridin-2(1H)-one] | > 6.00 | > 4.30 | – | – |
| Cc1nc(Br)cn(Cc2nc(C[C@H](O)c3ccc(Cl)cc3)no2)c1=O [Compound 27, (S)-5-bromo-1-((3-(2-(4-chlorophenyl)-2-hydroxyethyl)-1,2,4-oxadiazol-5-yl)methyl)-3-methylpyrazin-2(1H)-one] | > 6.52 | > 4.30 | – | – |
| Nc1c(Cl)ncn(Cc2nc(C[C@H](O)c3ccc(Cl)cc3)no2)c1=O [Compound 66, (S)-5-amino-6-chloro-3-((3-(2-(4-chlorophenyl)-2-hydroxyethyl)-1,2,4-oxadiazol-5-yl)methyl)pyrimidin-4(3H)-one] | – | – | > 6.52 | < 4.30 |
| O=c1c(Br)c(Cl)ncn1Cc1nc(C[C@H](O)c2ccc(Cl)cc2)no1 [Compound 67, (S)-5-bromo-6-chloro-3-((3-(2-(4-chlorophenyl)-2-hydroxyethyl)-1,2,4-oxadiazol-5-yl)methyl)pyrimidin-4(3H)-one] | – | – | > 7.00 | > 4.30 |
| Cc1cc(C(N)=O)cn(Cc2nc(CCc3ccc(Cl)cc3)no2)c1=O [Compound 4, 1-({3-[2-(4-chlorophenyl)ethyl]-1,2,4-oxadiazol-5-yl}methyl)-5-methyl-6-oxopyridine-3-carboxamide] | > 6.00 | < 4.30 | – | – |
| Cc1c(Cl)ncn(Cc2nc(C[C@H](O)c3ccc(Cl)cc3)no2)c1=O [Compound 58, (S)-6-chloro-3-((3-(2-(4-chlorophenyl)-2-hydroxyethyl)-1,2,4-oxadiazol-5-yl)methyl)-5-methylpyrimidin-4(3H)-one] | – | – | > 7.00 | < 4.30 |
| Cc1cc(CC#N)cn(Cc2nc(CCc3ccc(Cl)cc3)no2)c1=O [Compound 19, 2-(1-((3-(4-chlorophenethyl)-1,2,4-oxadiazol-5-yl)methyl)-5-methyl-6-oxo-1,6-dihydropyridin-3-yl)acetonitrile] | > 6.00 | – | – | – |
| Cc1cc(Cl)cn(Cc2nc(CCc3ccc(Cl)cc3)no2)c1=O [Compound 5, 5-chloro-1-((3-(4-chlorophenethyl)-1,2,4-oxadiazol-5-yl)methyl)-3-methylpyridin-2(1H)-one] | > 5.52 | – | – | – |
| Cc1ncn(Cc2nc(C[C@H](O)c3ccc(Cl)cc3)no2)c(=O)c1Cl [Compound 36, (S)-5-chloro-3-((3-(2-(4-chlorophenyl)-2-hydroxyethyl)-1,2,4-oxadiazol-5-yl)methyl)-6-methylpyrimidin-4(3H)-one] | > 7.00 | < 4.30 | – | – |
